3 compounds from ChEMBL document CHEMBL3785008, “Piperine in food: interference in the pharmacokinetics of phenytoin” (Eur J Drug Metab Pharmacokinet, 2001) can be followed below.

The nature of series [1]: AUC (0 to infinity) in healthy adult human subjects at 300 mg, po by HPLC method. Set-up: dose 300 mg, route oral, time infinity. The note with it: in vivo. Format: ADME, organism-based.
A short description of series [2]: Tmax in healthy adult human subjects at 300 mg, po by HPLC method. It counts as ADME, organism-based. The note with it: in vivo.
Series [3] deals with Homo sapiens. The experiment in a line: Drug absorption in healthy adult human subjects at 300 mg, po by HPLC method. It counts as ADME, organism-based. Particulars: in vivo.
Series [4] deals with Homo sapiens. The experiment in a line: Drug lag time in healthy adult human subjects at 300 mg, po by HPLC method. Format: ADME, organism-based. Particulars: in vivo.
Series [5] deals with Homo sapiens. The experiment in a line: Drug absorption in healthy adult human subjects at 300 mg, po dosed 30 minutes after ingestion of soup (melahu rasam) with black pepper by HPLC method. Format: ADME, organism-based. Particulars: in vivo, 0.5 h.
A short description of series [6]: Tmax in healthy adult human subjects at 300 mg, po dosed 30 minutes after ingestion of soup (melahu rasam) with black pepper by HPLC method. It counts as ADME, organism-based. Particulars: in vivo.
The nature of series [7]: Mean residence time in healthy adult human subjects at 300 mg, po dosed 30 minutes after ingestion of soup (melahu rasam) with black pepper by HPLC method. Particulars: in vivo. It counts as ADME, organism-based.
The nature of series [8]: AUC (0 to infinity) in healthy adult human subjects at 300 mg, po dosed 30 minutes after ingestion of soup (melahu rasam) with black pepper by HPLC method. On the set-up: dose 300 mg, time infinity, route oral. The note with it: in vivo. Format: ADME, organism-based.
Series [9] is described as follows: AUC (0 to 48 hrs) in healthy adult human subjects at 300 mg, po dosed 30 minutes after ingestion of soup (melahu rasam) with black pepper by HPLC method. Format: ADME, organism-based. On the set-up: time < 48 hr, dose 300 mg, route oral. The note with it: in vivo.
Series [10] is described as follows: Cmax in healthy adult human subjects at 300 mg, po dosed 30 minutes after ingestion of soup (melahu rasam) with black pepper by HPLC method. Format: ADME, organism-based. Set-up: dose 300 mg, route oral. The note with it: in vivo.
Series [11] has as its system Homo sapiens. Description: Volume of distribution in healthy adult human subjects at 300 mg, po by HPLC method. It counts as ADME, organism-based. The note with it: in vivo.
Series [12] has as its system Homo sapiens. Description: Drug lag time in healthy adult human subjects at 300 mg, po dosed 30 minutes after ingestion of soup (melahu rasam) with black pepper by HPLC method. Format: ADME, organism-based. Particulars: in vivo, 0.5 h.
The nature of series [13]: Mean residence time in healthy adult human subjects at 300 mg, po by HPLC method. Particulars: in vivo. Format: ADME, organism-based.
Series [14] can be described thus: Elimination half life in healthy adult human subjects at 300 mg, po by HPLC method. Format: ADME, organism-based. The note with it: in vivo, read-out: beta t1/2 (converted).
A short description of series [15]: Clearance in healthy adult human subjects at 300 mg, po by HPLC method. Format: ADME, organism-based. Particulars: in vivo.
The subject of the next series is Mus musculus. Description: Ratio of drug level in 0.6 mg, po piperine pre-treated Swiss albino mouse at 10 mg, po to drug level in normal Swiss albino mouse at 10 mg, po. Format: ADME, organism-based. Particulars: in vivo.
A short description of series [16]: AUC (0 to 10 hrs) in normal Swiss albino mouse at 10 mg, po by HPLC method. Format: ADME, organism-based. Set-up: time < 10 hr, dose 10 mg, route oral. The note with it: in vivo.
Series [17] is described as follows: AUC (0 to 48 hrs) in healthy adult human subjects at 300 mg, po by HPLC method. It counts as ADME, organism-based. Set-up: time < 48 hr, dose 300 mg, route oral. The note with it: in vivo.
Series [18] can be described thus: AUC (0 to 10 hrs) in 0.6 mg, po piperine pre-treated Swiss albino mouse at 10 mg, po by HPLC method. Set-up: dose 0.6 mg, time < 10 hr, route oral. Format: ADME, organism-based. The note with it: in vivo.
A short description of series [19]: Clearance in healthy adult human subjects at 300 mg, po dosed 30 minutes after ingestion of soup (melahu rasam) with black pepper by HPLC method. Particulars: in vivo. Format: ADME, organism-based.
Series [20] deals with Homo sapiens. The experiment in a line: Volume of distribution in healthy adult human subjects at 300 mg, po dosed 30 minutes after ingestion of soup (melahu rasam) with black pepper by HPLC method. It counts as ADME, organism-based. Particulars: in vivo, 0.5 h.
Series [21] can be described thus: Cmax in healthy adult human subjects at 300 mg, po by HPLC method. The note with it: in vivo. Set-up: dose 300 mg, route oral. Format: ADME, organism-based.
The nature of series [22]: Elimination half life in healthy adult human subjects at 300 mg, po dosed 30 minutes after ingestion of soup (melahu rasam) with black pepper by HPLC method. The note with it: in vivo, read-out: beta t1/2 (converted). It counts as ADME, organism-based.
Series [23] in a line: Tmax in Swiss albino mouse serum at 0.3 mg, po by HPLC method. Format: ADME, organism-based.
Series [24] is described as follows: AUC (0 to infinity) in healthy adult human subjects after consumption of 44 mg equivalent of piperine in form of pepper in soup (melahu rasam) by HPLC method. It counts as ADME, organism-based. Set-up: dose 44 mg, time infinity. The note with it: in vivo, po.
Series [25] in a line: Cmax in Swiss albino mouse serum at 0.3 mg, po by HPLC method. Format: ADME, organism-based. On the set-up: dose 0.3 mg, route oral.
Series [26] can be described thus: Drug elimination rate constant in healthy adult human subjects after consumption of 44 mg equivalent of piperine in form of pepper in soup (melahu rasam) by HPLC method. Format: ADME, organism-based. Particulars: in vivo, po.
For series [27], the species on record is Homo sapiens. Description: Drug absorption rate constant in healthy adult human subjects after consumption of 44 mg equivalent of piperine in form of pepper in soup (melahu rasam) by HPLC method. It counts as ADME, organism-based. The note with it: in vivo, po.
Series [28] in a line: Cmax in healthy adult human subjects after consumption of 44 mg equivalent of piperine in form of pepper in soup (melahu rasam) by HPLC method. It counts as ADME, organism-based. Set-up: dose 44 mg. The note with it: in vivo, po.
Series [29] in a line: Tmax in healthy adult human subjects after consumption of 44 mg equivalent of piperine in form of pepper in soup (melahu rasam) by HPLC method. Format: ADME, organism-based. Particulars: in vivo, po.
A short description of series [30]: AUC (0 to 12.5 hrs) in healthy adult human subjects after consumption of 44 mg equivalent of piperine in form of pepper in soup (melahu rasam) by HPLC method. Format: ADME, organism-based. On the set-up: dose 44 mg, time < 12.5 hr. Particulars: in vivo, po.
Series [31] is described as follows: Drug excretion in human urine assessed as hydroxyphenylphenylhydantoin and glucuronide conjugate level. Format: ADME, tissue-based.

On to `O=C1N=C([O-])NC1(c1ccccc1)c1ccccc1.[Na+]` [PHENYTOIN SODIUM], for which the AUC(0-inf) in [1] was 143 µg·h/mL; in series [8] it was 332 µg·h/mL. Besides, the time of peak concentration (Tmax) in series [2] worked out at 5.32 h; in series [6], 3.38 h. Moreover, the ka in the series on Homo sapiens [3] was 0.666 h⁻¹; in the series with Homo sapiens [5], 1.177 h⁻¹. Besides, the Tlag with Homo sapiens [4] was 0.655 h; with Homo sapiens [12], 0.168 h. Further, the MRT in series [7] turned out to be 70.9 h; in series [13], 34.2 h. Also, the exposure AUC(0-t) at 48 h in [9] is 153 µg·h/mL; in series [17], 102 µg·h/mL. The Cmax in series [10] was 4310 ng/mL; in series [21] it was 3820 ng/mL. In addition, the Vd was 65.02 L with Homo sapiens [11] and 64.58 L in the series with Homo sapiens [20]. For the same compound, the half-life in [14] was 22.5 h; in [22], 49.7 h. The values for the CL/F in [15] and in [19] were 41.3 mL/min and 15.9 mL/min, respectively. In addition, the Ratio with Mus musculus turned out to be 1.8. Moreover, the area under the curve AUC(0-t) at 10 h in series [16] was 716 µg·h/mL; in series [18], 891 µg·h/mL.
On to `O=C(/C=C/C=C/c1ccc2c(c1)OCO2)N1CCCCC1` [PIPERINE], for which the time to peak (Tmax) in series [23] came out at 6 h; in [29] it was 2.5 h. Moreover, the AUC(0-inf) in series [24] was 5.3 µg·h/mL. Moreover, the Cmax in [25] amounted to 5470 ng/mL; in series [28], 400 ng/mL. In series [26], the k el was 2.22e-05 s⁻¹. The ka in the series filed under Homo sapiens [27] is 1.41 h⁻¹. The exposure AUC(0-t) at 12.5 h in series [30] is 3.37 µg·h/mL.
For `O=C1NC(=O)C(c2ccccc2)(c2ccccc2)N1` [PHENYTOIN], the Drug excretion in series [31] is 60%.
